The results in this text go back to patent US7879858B2, “Substituted tetrahydropyrrolopyrazine compounds and the use thereof in pharmaceutical compositions” (Gruenenthal GmbH, priority 2006, dated 2011).

One experiment has as its target T1, Serotonin reuptake (Rattus norvegicus, UniProt P31652).
T1 construct: synaptosomes are freshly isolated from areas of the rat brain; from tissue; host or cells: rat brain synaptosomes (P2 fraction)
In words: Inhibition of 5HT (serotonin) uptake in rat brain synaptosomes. It is filed as biochemical. Conditions: 10 μmol; synaptosomes from rat brain. On the procedure: (§1) Biological Data Inhibition of NA and 5HT Uptake
(§2) In order to be able to carry out these in vitro studies, synaptosomes are freshly isolated from areas of the rat brain. In each case a so-called “P2” fraction prepared in accordance with the instructions of Gray and Whittaker (E. G. Gray and V. P. Whittaker (1962) J. Anat. 76, 79-88) is prepared. For the NA uptake, these vesicular particles are isolated from the hypothalamus of male rat brains. A detailed description of the method can be found in the literature (M. Ch. Frink, H.-H. Hennies, W. Englberger, M. Haurand and B. Wilffert (1996) Arzneim.-Forsch./Drug Res. 46 (III), 11, 1029-1036).

In a further experiment the test system is NA reuptake. In words: Inhibition of NA (noradrenaline) uptake in rat hypothalamus synaptosomes. The settings on record: synaptosomes from hypothalamus of male rat brains. Format: biochemical. On the procedure: as §1, §2

T1 sequence (P31652 whole entry): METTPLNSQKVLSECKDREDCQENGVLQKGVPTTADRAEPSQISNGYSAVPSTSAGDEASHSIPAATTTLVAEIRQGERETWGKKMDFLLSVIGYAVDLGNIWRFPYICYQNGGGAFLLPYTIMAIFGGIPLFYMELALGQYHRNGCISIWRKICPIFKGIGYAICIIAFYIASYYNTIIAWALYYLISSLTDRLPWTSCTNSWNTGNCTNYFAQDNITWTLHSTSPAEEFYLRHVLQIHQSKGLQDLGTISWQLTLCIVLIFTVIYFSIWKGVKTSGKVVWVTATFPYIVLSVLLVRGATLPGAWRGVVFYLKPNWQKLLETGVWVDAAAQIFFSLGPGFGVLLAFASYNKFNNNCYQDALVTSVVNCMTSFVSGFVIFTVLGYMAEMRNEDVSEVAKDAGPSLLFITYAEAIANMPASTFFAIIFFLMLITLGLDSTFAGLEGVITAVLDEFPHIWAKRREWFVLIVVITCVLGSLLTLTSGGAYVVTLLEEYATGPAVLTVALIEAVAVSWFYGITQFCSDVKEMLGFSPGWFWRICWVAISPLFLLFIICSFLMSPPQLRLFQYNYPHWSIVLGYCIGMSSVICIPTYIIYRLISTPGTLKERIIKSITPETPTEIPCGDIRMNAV

In the case of `COc1ccccc1C1c2cccn2CCN1C(=O)c1cccc(F)c1` (centres unmarked) [Example 1, (3-fluorophenyl)(1-(2-methoxyphenyl)-3,4-dihydropyrrolo[1,2-a]pyrazin-2(1H)-yl)methanone], on Serotonin reuptake, 10 µM produced 26% inhibition.

In the case of `COc1ccccc1C1c2cccn2CCN1C(=O)C1CCCC1` (centres unmarked) [Example 2, cyclopentyl-[1-(2-methoxy-phenyl)-3,4-dihydro-1H-pyrrolo[1,2-a]pyrazin-2-yl]-methanone], at Serotonin reuptake, the inhibition (as a rule, how much of the control response was suppressed) at 10 µM was determined as 79%. Moreover, the “NA reuptake % inhibition [10 μmol]” value with NA reuptake turned out to be 36%. At Serotonin reuptake, `COc1ccccc1C1c2cccn2CCN1C(=O)c1ccc2c(c1)OCO2` (centres unmarked) [Example 3, benzo[1,3]dioxol-5-yl-[1-(2-methoxy-phenyl)-3,4-dihydro-1H-pyrrolo[1,2-a]pyrazin-2-yl]-methanone] registered an inhibition at 10 µM of 86%. Besides, the “NA reuptake % inhibition [10 μmol]” value in the experiment on NA reuptake was 29%. The matching figures for `COc1ccccc1C(=O)N1CCn2cccc2C1c1ccccc1OC` (centres unmarked) [Example 4, (2-methoxy-phenyl)-[1-(2-methoxy-phenyl)-3,4-dihydro-1H-pyrrolo[1,2-a]pyrazin-2-yl]-methanone]: 82% and 13%. The matching figures for `O=C(c1ccco1)N1CCn2cccc2C1c1ccccc1F` (centres unmarked) [Example 5, (1-(2-fluorophenyl)-3,4-dihydropyrrolo[1,2-a]pyrazin-2(1H)-yl)(furan-2-yl)methanone]: 11% and 34%.

In turn, `O=C(C1CC1)N1CCn2cccc2C1c1ccccc1F` (centres unmarked) [Example 6, cyclopropyl(1-(2-fluorophenyl)-3,4-dihydropyrrolo[1,2-a]pyrazin-2(1H)-yl)methanone] had an inhibition at 10 µM at Serotonin reuptake of 34%. Further, in the experiment on NA reuptake, the “NA reuptake % inhibition [10 μmol]” value came to 13%. `O=C(c1cccc(F)c1)N1CCn2cccc2C1c1ccccc1F` (centres unmarked) [Example 7, (3-fluoro-phenyl)-[1-(2-fluoro-phenyl)-3,4-dihydro-1H-pyrrolo[1,2-a]pyrazin-2-yl]-methanone]: the inhibition at 10 µM on Serotonin reuptake came out at 54%. Moreover, the “NA reuptake % inhibition [10 μmol]” value with NA reuptake came to 36%.

For `Cc1ccccc1C(=O)N1CCn2cccc2C1c1ccccc1F` (centres unmarked) [Example 8, (1-(2-fluorophenyl)-3,4-dihydropyrrolo[1,2-a]pyrazin-2(1H)-yl)(o-tolyl)methanone], the inhibition at 10 µM against Serotonin reuptake was 37%. Also, the “NA reuptake % inhibition [10 μmol]” value in the experiment on NA reuptake is recorded as 18%. The matching figures for `O=C(c1ccc2c(c1)OCO2)N1CCn2cccc2C1c1ccccc1F` (centres unmarked) [Example 9, benzo[d][1,3]dioxol-5-yl(1-(2-fluorophenyl)-3,4-dihydropyrrolo[1,2-a]pyrazin-2(1H)-yl)methanone]: 30% and 27%. The like results for `Cc1ccccc1C1c2cccn2CCN1C(=O)C1CCCC1` (centres unmarked) [Example 10, cyclopentyl-(1-o-tolyl-3,4-dihydro-1H-pyrrolo[1,2-a]pyrazin-2-yl)-methanone] were, in that order, 50% and 30%.

As to `Cc1ccccc1C(=O)N1CCn2cccc2C1c1ccccc1C` (centres unmarked) [Example 11, o-tolyl(1-o-tolyl-3,4-dihydropyrrolo[1,2-a]pyrazin-2(1H)-yl)methanone], on Serotonin reuptake, the inhibition at 10 µM was found to be 38%. In the case of `Cc1ccccc1C1c2cccn2CCN1C(=O)c1ccc2c(c1)OCO2` (centres unmarked) [Example 12, benzo[d][1,3]dioxol-5-yl(1-o-tolyl-3,4-dihydropyrrolo[1,2-a]pyrazin-2(1H)-yl)methanone], testing at 10 µM on Serotonin reuptake gave an inhibition of 34%. For the same compound, the “NA reuptake % inhibition [10 μmol]” value with NA reuptake is listed as 22%. Take `Cc1cccc(C2c3cccn3CCN2C(=O)c2ccc(F)cc2)c1` (centres unmarked) [Example 13, (4-fluoro-phenyl)-(1-m-tolyl-3,4-dihydro-1H-pyrrolo[1,2-a]pyrazin-2-yl)-methanone]: the inhibition at 10 µM against Serotonin reuptake came out at 55%. In addition, the “NA reuptake % inhibition [10 μmol]” value with NA reuptake is reported as 41%. The like results for `Cc1cccc(C2c3cccn3CCN2C(=O)c2cccs2)c1` (centres unmarked) [Example 14, thiophen-2-yl(1-m-tolyl-3,4-dihydropyrrolo[1,2-a]pyrazin-2(1H)-yl)methanone] were, in that order, 27% and 25%. `Cc1cccc(C2c3cccn3CCN2C(=O)CC(C)C)c1` (centres unmarked) [Example 15, 3-methyl-1-(1-m-tolyl-3,4-dihydropyrrolo[1,2-a]pyrazin-2(1H)-yl)butan-1-one] had an inhibition at 10 µM on Serotonin reuptake of 28%. Further, the “NA reuptake % inhibition [10 μmol]” value in the experiment with NA reuptake amounted to 19%. The matching figures for `Cc1cccc(C2c3cccn3CCN2C(=O)c2cccc(F)c2)c1` (centres unmarked) [Example 16, (3-fluoro-phenyl)-(1-m-tolyl-3,4-dihydro-1H-pyrrolo[1,2-a]pyrazin-2-yl)-methanone]: 54% and 49%.

Take `Cc1cccc(C2c3cccn3CCN2C(=O)C2CCCC2)c1` (centres unmarked) [Example 17, cyclopentyl(1-m-tolyl-3,4-dihydropyrrolo[1,2-a]pyrazin-2(1H)-yl)methanone]: at 10 µM the inhibition at Serotonin reuptake was 34%. For the same compound, the “NA reuptake % inhibition [10 μmol]” value with NA reuptake was found to be 21%.

For the compound `Cc1cccc(C2c3cccn3CCN2C(=O)c2ccc3c(c2)OCO3)c1` (centres unmarked) [Example 18, benzo[1,3]dioxol-5-yl-(1-m-tolyl-3,4-dihydro-1H-pyrrolo[1,2-a]pyrazin-2-yl)-methanone], on Serotonin reuptake, 10 µM produced 55% inhibition. For the same compound, in the experiment on NA reuptake, the “NA reuptake % inhibition [10 μmol]” value is given as 40%. The like results for `O=C(c1ccc(F)cc1)N1CCn2cccc2C1c1ccc(F)cc1F` (centres unmarked) [Example 19, (1-(2,4-difluorophenyl)-3,4-dihydropyrrolo[1,2-a]pyrazin-2(1H)-yl)(4-fluorophenyl)methanone] were, in that order, 35% and 28%. The matching figures for `O=C(c1ccc(F)cc1)N1CCn2cccc2C1c1ccccc1` (centres unmarked) [Example 20, (4-fluorophenyl)(1-phenyl-3,4-dihydropyrrolo[1,2-a]pyrazin-2(1H)-yl)methanone]: 32% and 33%. The like results for `O=C(c1ccco1)N1CCn2cccc2C1c1ccccc1` (centres unmarked) [Example 21, furan-2-yl(1-phenyl-3,4-dihydropyrrolo[1,2-a]pyrazin-2(1H)-yl)methanone] were, in that order, 11% and 44%.

The compound `O=C(c1cccs1)N1CCn2cccc2C1c1ccccc1` (centres unmarked) [Example 22, (1-phenyl-3,4-dihydropyrrolo[1,2-a]pyrazin-2(1H)-yl)(thiophen-2-yl)methanone] gave an inhibition at 10 µM at Serotonin reuptake of 18%. The “NA reuptake % inhibition [10 μmol]” value with NA reuptake is 33%. On Serotonin reuptake, `O=C(c1cccc(F)c1)N1CCn2cccc2C1c1ccccc1` (centres unmarked) [Example 23, (3-fluorophenyl)(1-phenyl-3,4-dihydropyrrolo[1,2-a]pyrazin-2(1H)-yl)methanone] showed an inhibition at 10 µM of 42%. Moreover, the “NA reuptake % inhibition [10 μmol]” value in the experiment with NA reuptake is 41%. In the case of `O=C(C1CCCC1)N1CCn2cccc2C1c1ccccc1` (centres unmarked) [Example 24, cyclopentyl(1-phenyl-3,4-dihydropyrrolo[1,2-a]pyrazin-2(1H)-yl)methanone], the inhibition at 10 µM against Serotonin reuptake stood at 32%. Moreover, the “NA reuptake % inhibition [10 μmol]” value in the experiment with NA reuptake is given as 44%. On to `CCC(C)C(=O)N1CCn2cccc2C1c1ccccc1C` (centres unmarked) [Example 31, 2-methyl-1-(1-o-tolyl-3,4-dihydropyrrolo[1,2-a]pyrazin-2(1H)-yl)butan-1-one], for which the inhibition at 10 µM against Serotonin reuptake came out at 26%. On the same count and under the same terms, the figure for `CCC(C)C(=O)N1CCn2cccc2C1c1ccccc1OC` (centres unmarked) [Example 48, 1-(1-(2-methoxyphenyl)-3,4-dihydropyrrolo[1,2-a]pyrazin-2(1H)-yl)-2-methylbutan-1-one] is 27%; for `CCC(OC)C(=O)N1CCn2cccc2C1c1cccs1` (centres unmarked) [Example 55, 2-methoxy-1-(1-(thiophen-2-yl)-3,4-dihydropyrrolo[1,2-a]pyrazin-2(1H)-yl)butan-1-one] it is 28%; for `CC1c2cccn2CCN1C(=O)/C=C/c1ccc(F)cc1` (centres unmarked) [Example 73, 3-(4-fluorophenyl)-1-(1-methyl-3,4-dihydropyrrolo[1,2-a]pyrazin-2(1H)-yl)prop-2-en-1-one] it is 25%.

For the compound `CC1c2cccn2CCN1C(=O)/C=C/c1ccc(SC(F)(F)F)cc1` (centres unmarked) [Example 74, 1-(1-methyl-3,4-dihydropyrrolo[1,2-a]pyrazin-2(1H)-yl)-3-(4-(trifluoromethylthio)phenyl)prop-2-en-1-one], the inhibition at 10 µM at Serotonin reuptake amounted to 32%. Take `CCCCCC(=O)N1CCn2cccc2C1c1cccs1` (centres unmarked) [Example 78, 1-(1-(thiophen-2-yl)-3,4-dihydropyrrolo[1,2-a]pyrazin-2(1H)-yl)hexan-1-one]: on Serotonin reuptake, at 10 µM the inhibition was 51%. As for `O=C(c1ccccc1)N1CCn2cccc2C1c1cccs1` (centres unmarked) [Example 82, phenyl(1-(thiophen-2-yl)-3,4-dihydropyrrolo[1,2-a]pyrazin-2(1H)-yl)methanone], in the experiment with NA reuptake, the “NA reuptake % inhibition [10 μmol]” value was determined as 35%. In turn, `CC(=O)N1CCn2cccc2C1c1cccs1` (centres unmarked) [Example 83, 1-(1-(thiophen-2-yl)-3,4-dihydropyrrolo[1,2-a]pyrazin-2(1H)-yl)ethanone] yielded an inhibition at 10 µM against Serotonin reuptake of 16%.

With `CC(C)(C)CC(=O)N1CCn2cccc2C1c1cccs1` (centres unmarked) [Example 85, 3,3-dimethyl-1-(1-(thiophen-2-yl)-3,4-dihydropyrrolo[1,2-a]pyrazin-2(1H)-yl)butan-1-one], the inhibition at 10 µM on Serotonin reuptake was determined as 12%. Still for that read-out and setting: under `O=C(CCCc1ccccc1)N1CCn2cccc2C1c1cccs1` (centres unmarked) [Example 87, 4-phenyl-1-(1-(thiophen-2-yl)-3,4-dihydropyrrolo[1,2-a]pyrazin-2(1H)-yl)butan-1-one] stands 17%.
